Test [1] deals with Green peach aphid (Myzus persicae), mixed life stages. Put plainly: Green peach aphid foliar dip test, mortality. In kind it is in vivo. The settings on record: 120 h, infested bell pepper leaves dipped 3 seconds, determined after 5 days, read-out: mortality of green peach aphid in comparison with untreated controls. The protocol: (§1) The active compounds were formulated in a mixture of 50 vol.-% acetone: 50 vol.-% water. A nonionic surfactant (Kinetic®) was included in the solution at a volume of 0.01% v/v.
(§2) In the following tests, the formulated solutions of the active compounds were diluted to an active ingredient concentration of 300 ppm and the diluted solutions were applied in the below mentioned tests.
Bell pepper plants at the first true-leaf stage were infested prior to treatment by placing heavily infested leaves from the main aphid colony on top of the treatment plants. The aphids were allowed to transfer overnight to accomplish an infestation of 30-40 aphids per plant and the host leaves were removed. The infested leaves of the test plants were then dipped and agitated in the test solution for 3 seconds and allowed to dry in a fume hood. Test plants were maintained under fluorescent lighting in a 24-hr photoperiod at 25° C. and 20-40% relative humidity. Aphid mortality on the treated plants, relative to mortality on untreated check plants, was determined after 5 days. Test compound A provided 85% mortality while test compounds B and C each provided 100% mortality of green peach aphid (Myzus persicae, mixed life stages) in comparison with untreated controls, when applied at 300 ppm. Test Compounds D, E, F, G and H each provided >85% mortality of green peach aphid (Myzus persicae, mixed life stages) in comparison with untreated controls, when applied at 300 ppm.

Test [2] has as its system Cotton aphid (Aphis gossypii), mixed life stages. Put plainly: Cotton aphid foliar dip test, mortality. The settings on record: 120 h, infested cotton cotyledons dipped 3 seconds, determined after 5 days, read-out: mortality of cotton aphid in comparison with untreated controls. In kind it is in vivo. The protocol: as §1, §2
Cotton plants at the cotyledon stage were infested prior to treatment by placing a heavily infested leaf from the main aphid colony on top of each cotyledon. The aphids were allowed to transfer overnight and the host leaf was removed. The infested cotyledons were then dipped and agitated in the test solution for 3 seconds and allowed to dry in a fume hood. Test plants were maintained under fluorescent lighting in a 24-hr photoperiod at 25° C. and 20-40% relative humidity. Aphid mortality on the treated plants, relative to mortality on untreated check plants, was determined after 5 days. In this test, test compounds B, C and F at 300 ppm provided 100%, and 86-99% mortality, respectively, of cotton aphid (Aphis gossypii, mixed life stages) in comparison with untreated controls. Test compound A at 300 ppm provided 75-85% mortality, respectively, of cotton aphid (Aphis gossypii, mixed life stages) in comparison with untreated controls.

What is called mortality is the share of the test organisms that died. Turning to `CC(Oc1ccc(Cl)nc1)C1CCCN1OC(=O)c1ccccc1` (racemic) [Compound E, Benzoic acid 2-[1-(6-chloropyridin-3-yloxy)-ethyl]-pyrrolidin-1-yl ester], the mortality at 300 ppm in test [1] was over 85%.

`Clc1cncc(OC[C@H]2CCCN2)c1` [Compound A, R-3-Chloro-5-(pyrrolidin-2-ylmethyloxy)-pyridine]: the mortality at 300 ppm was 75 to 85% in test [2] and 85% in test [1].

In the case of `CC(C)(C)C(=O)ON1CCCC1COc1cncc(Cl)c1` (stereo not drawn) [Compound B, 2,2-Dimethyl-propionic acid 2-(5-chloropyridin-3-yloxymethyl)pyrrolidin-1-yl ester], the mortality at 300 ppm in test [2] and in test [1] was 100% in each case.

`CC(Oc1ccc(Cl)nc1)C1CCCN1` (stereo not drawn) [Compound F, 2-Chloro-5-(1-pyrrolidin-2-ylethoxy)-pyridine]: the mortality at 300 ppm in test [2] was 86 to 99%; in test [1], over 85%.

For the molecule `CC(Oc1cncc(Cl)c1)C1CCCN1` (stereo not drawn) [Compound G, 3-Chloro-5-(1-pyrrolidin-2-ylethoxy)-pyridine], in test [1], the mortality at 300 ppm was over 85%.

As to `C[C@@H](Oc1cncc(Cl)c1)C1CCN1` (stereo partly drawn) [Compound H, 2S-3-(1-Azetidin-2-yl-ethoxy)-5-chloro-pyridine], in test [1], the mortality at 300 ppm is over 85%.

The values above are taken from patent US20080176826A1, “Pyridine Compounds For Combating Arthropod Pests and Nematodes” (priority 2005, published 2008).
